From patent publication US9693556B2, “Herbicidal pyridazinone derivatives” (SYNGENTA LIMITED, priority 2011, dated 2017)

Assays:
Assay type in all cases: in vivo
[1] = system: Alopecurus myosuroides (ALOMY); test: Pre-emergence herbicidal glasshouse test on Alopecurus myosuroides; conditions: pre-emergence; 1000 g/h; evaluated after 13 days
How it was run: (§1)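 Steps: sow seeds in standard soil; cultivate 1 d (pre-) or 8 d (post-emergence) at 24/16 °C, 14 h light, 65% humidity; spray 1000 g/h in acetone/water plus Tween 20; grow on, watering twice daily; score percentage damage after 13 d.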

Setaria faberi (SETFA) [2] = test: Pre-emergence herbicidal glasshouse test on Setaria faberi; conditions: pre-emergence; 1000 g/h; evaluated after 13 days
How it was run: as §1

[3] = system: Echinochloa crus-galli (ECHCG); test: Pre-emergence herbicidal glasshouse test on Echinochloa crus-galli; conditions: pre-emergence; 1000 g/h; evaluated after 13 days
How it was run: as §1

Solanum nigrum (SOLNI) [4] = test: Pre-emergence herbicidal glasshouse test on Solanum nigrum; conditions: pre-emergence; 1000 g/h; evaluated after 13 days
How it was run: as §1

[5] = system: Amaranthus retoflexus (AMARE); test: Pre-emergence herbicidal glasshouse test on Amaranthus retoflexus; conditions: pre-emergence; 1000 g/h; evaluated after 13 days
How it was run: as §1

[6] = system: Ipomoea hederacea (IPOHE); test: Pre-emergence herbicidal glasshouse test on Ipomoea hederacea; conditions: pre-emergence; 1000 g/h; evaluated after 13 days
How it was run: as §1

[7] = system: Alopecurus myosuroides (ALOMY); test: Post-emergence herbicidal glasshouse test on Alopecurus myosuroides; conditions: post-emergence; 1000 g/h; evaluated after 13 days
How it was run: as §1

Setaria faberi (SETFA) [8] = test: Post-emergence herbicidal glasshouse test on Setaria faberi; conditions: post-emergence; 1000 g/h; evaluated after 13 days
How it was run: as §1

[9] = system: Echinochloa crus-galli (ECHCG); test: Post-emergence herbicidal glasshouse test on Echinochloa crus-galli; conditions: post-emergence; 1000 g/h; evaluated after 13 days
How it was run: as §1

Solanum nigrum (SOLNI) [10] = test: Post-emergence herbicidal glasshouse test on Solanum nigrum; conditions: post-emergence; 1000 g/h; evaluated after 13 days
How it was run: as §1

[11] = system: Amaranthus retoflexus (AMARE); test: Post-emergence herbicidal glasshouse test on Amaranthus retoflexus; conditions: post-emergence; 1000 g/h; evaluated after 13 days
How it was run: as §1

[12] = system: Ipomoea hederacea (IPOHE); test: Post-emergence herbicidal glasshouse test on Ipomoea hederacea; conditions: post-emergence; 1000 g/h; evaluated after 13 days
How it was run: as §1

SMILES	PRE Application ALOMY herbicidal damage (five point scale) [1]	PRE Application SETFA herbicidal damage (five point scale) (Setaria faberi (SETFA) [2])	PRE Application ECHCG herbicidal damage (five point scale) [3]	PRE Application SOLNI herbicidal damage (five point scale) (Solanum nigrum (SOLNI) [4])	PRE Application AMARE herbicidal damage (five point scale) [5]	PRE Application IPOHE herbicidal damage (five point scale) [6]	POST Application ALOMY herbicidal damage (five point scale) [7]	POST Application SETFA herbicidal damage (five point scale) (Setaria faberi (SETFA) [8])	POST Application ECHCG herbicidal damage (five point scale) [9]	POST Application SOLNI herbicidal damage (five point scale) (Solanum nigrum (SOLNI) [10])	POST Application AMARE herbicidal damage (five point scale) [11]	POST Application IPOHE herbicidal damage (five point scale) [12]
Cn1ncc(-c2cc(OC(F)(F)F)ccc2Cl)c(O)c1=O [Compound 1.100]	1 (1=0-19% damage)	1 (1=0-19% damage)	1 (1=0-19% damage)	1 (1=0-19% damage)	1 (1=0-19% damage)	1 (1=0-19% damage)	1 (1=0-19% damage)	1 (1=0-19% damage)	1 (1=0-19% damage)	2 (2=20-39% damage)	2 (2=20-39% damage)	2 (2=20-39% damage)
Cc1ccc(Cl)c(-c2cnn(C)c(=O)c2O)c1 [Compound 1.101]	1 (1=0-19% damage)	1 (1=0-19% damage)	1 (1=0-19% damage)	1 (1=0-19% damage)	1 (1=0-19% damage)	1 (1=0-19% damage)	1 (1=0-19% damage)	1 (1=0-19% damage)	1 (1=0-19% damage)	1 (1=0-19% damage)	1 (1=0-19% damage)	1 (1=0-19% damage)
COc1ccc(-c2cnn(C)c(=O)c2O)c(Cl)c1 [Compound 1.103]	1 (1=0-19% damage)	1 (1=0-19% damage)	1 (1=0-19% damage)	1 (1=0-19% damage)	1 (1=0-19% damage)	1 (1=0-19% damage)	1 (1=0-19% damage)	1 (1=0-19% damage)	1 (1=0-19% damage)	2 (2=20-39% damage)	1 (1=0-19% damage)	1 (1=0-19% damage)
Cn1ncc(-c2ccc(S(C)(=O)=O)cc2Cl)c(O)c1=O [Compound 1.105]	2 (2=20-39% damage)	2 (2=20-39% damage)	5 (5=80-100% damage)	4 (4=60-79% damage)	5 (5=80-100% damage)	1 (1=0-19% damage)	2 (2=20-39% damage)	1 (1=0-19% damage)	5 (5=80-100% damage)	5 (5=80-100% damage)	5 (5=80-100% damage)	5 (5=80-100% damage)
Cn1ncc(-c2c(Br)cccc2S(C)(=O)=O)c(O)c1=O [Compound 1.106]	1 (1=0-19% damage)	1 (1=0-19% damage)	1 (1=0-19% damage)	1 (1=0-19% damage)	4 (4=60-79% damage)	1 (1=0-19% damage)	2 (2=20-39% damage)	2 (2=20-39% damage)	4 (4=60-79% damage)	4 (4=60-79% damage)	5 (5=80-100% damage)	2 (2=20-39% damage)
Cn1ncc(-c2ccc(S(C)(=O)=O)c(O)c2Cl)c(O)c1=O [Compound 1.108]	1 (1=0-19% damage)	1 (1=0-19% damage)	1 (1=0-19% damage)	1 (1=0-19% damage)	1 (1=0-19% damage)	1 (1=0-19% damage)	1 (1=0-19% damage)	1 (1=0-19% damage)	1 (1=0-19% damage)	3 (3=40-59% damage)	3 (3=40-59% damage)	1 (1=0-19% damage)
Cn1ncc(-c2ccc(Cl)cc2[N+](=O)[O-])c(O)c1=O [Compound 1.109]	1 (1=0-19% damage)	1 (1=0-19% damage)	1 (1=0-19% damage)	2 (2=20-39% damage)	5 (5=80-100% damage)	1 (1=0-19% damage)	1 (1=0-19% damage)	1 (1=0-19% damage)	2 (2=20-39% damage)	4 (4=60-79% damage)	5 (5=80-100% damage)	4 (4=60-79% damage)
Cn1ncc(-c2ccc(C(F)(F)F)cc2[N+](=O)[O-])c(O)c1=O [Compound 1.110]	1 (1=0-19% damage)	1 (1=0-19% damage)	1 (1=0-19% damage)	1 (1=0-19% damage)	5 (5=80-100% damage)	1 (1=0-19% damage)	1 (1=0-19% damage)	1 (1=0-19% damage)	3 (3=40-59% damage)	5 (5=80-100% damage)	5 (5=80-100% damage)	5 (5=80-100% damage)
Cn1ncc(-c2ccc(F)cc2C(F)(F)F)c(O)c1=O [Compound 1.112]	1 (1=0-19% damage)	1 (1=0-19% damage)	1 (1=0-19% damage)	1 (1=0-19% damage)	1 (1=0-19% damage)	1 (1=0-19% damage)	1 (1=0-19% damage)	1 (1=0-19% damage)	1 (1=0-19% damage)	4 (4=60-79% damage)	5 (5=80-100% damage)	4 (4=60-79% damage)
